Structures are written as SMILES.

A short description of the data set: Thermo Scientific Acclaim RSLC 120 C18, 100 × 2.1 mm, 2.2 µm, 30 °C, 0.2 to 0.48 mL/min, estimated dead time 1.1 min; A: 90% water + 10% methanol + 5 mM ammonium acetate; B: methanol + 5 mM ammonium acetate; gradient (min/%B) 0.1/1 3/39 14/99.9 16/99.9. To be noted: stereoisomer not certain.

On to `COC(=O)NS(=O)(=O)c1ccc(N)cc1`, for which the LC retention time was 1.46 min.

`CCCNC(C)C(=O)Nc1ccccc1C` (stereo unspecified): the LC retention time was 7.49 min.

As for `CCC1(c2cccc(O)c2)CCCCN(C)C1` (stereo unspecified), the LC retention time is 6.47 min.

Consider `Cc1nnc(-c2ccccc2)c(=O)n1N`, for which the LC retention time was 5.22 min.

Regarding `CCCCC1C(=O)N(c2ccccc2)N(c2ccc(O)cc2)C1=O` (stereo unspecified), the LC retention time was 7.73 min.

For the compound `C=CCC1(C(C)CCC)C(=O)NC(=O)NC1=O` (stereo unspecified), the LC retention time was 8.39 min.

In the case of `COC(=O)C1CC2=CC(=O)CCC2(C)C23OC2CC2(C)C(CCC24CCC(=O)O4)C13` (stereo unspecified), the LC retention time is 6.74 min.

Take `CCOc1ccc(NC(=O)OC(C)C)cc1OCC`: the LC retention time is 9.01 min.

As to `CC12CCC3c4ccc(O)c(O)c4CCC3C1CCC2=O` (stereo unspecified), the LC retention time was 9.89 min.

With `O=C(O)c1cccc(Oc2ccccc2)c1`, the LC retention time is 7.77 min.

As for `C=CCC1(C(C)C#CCC)C(=O)NC(=O)N(C)C1=O` (stereo unspecified), the LC retention time is 9.02 min.

As for `CNC(=O)C(=NOC)c1ccccc1COc1cc(C)ccc1C`, the LC retention time is 10.6 min.

As to `CCOP(=S)(OCC)SCS(=O)(=O)C(C)(C)C`, the LC retention time was 8.98 min.

Take `Cc1ccc(NC(=O)NC(C)(C)c2ccccc2)cc1`: the LC retention time is 9.64 min.

Take `CC(C)N1C(=O)c2ccccc2NS1(=O)=O`: the LC retention time is 4.49 min.

As for `COc1cc(NS(=O)(=O)c2ccc(NC(C)=O)cc2)nc(OC)n1`, the LC retention time is 5.09 min.

For the compound `NC(=O)c1ccccc1O`, the LC retention time is 4.83 min.

For the compound `C#CC1(O)CCC2C3CCC4=CC(=O)CCC4=C3C=CC21CC` (stereo unspecified), the LC retention time is 9.64 min.

For the compound `CCNc1nc(NC(C)(C)C)[nH]c(=O)n1`, the LC retention time was 8.46 min.

Turning to `O=C(O)CCC(=O)c1ccc(-c2ccccc2)cc1`, the LC retention time is 6.79 min.

For the compound `NS(=O)(=O)c1ccccc1`, the LC retention time is 3.92 min.

Consider `CCCc1nn(C)c2c(=O)[nH]c(-c3cc(S(=O)(=O)N4CCN(C)CC4)ccc3OCC)nc12`, for which the LC retention time is 9.5 min.

As for `CC(C(=O)O)c1ccc(C(=O)c2cccs2)cc1` (stereo unspecified), the LC retention time was 8.96 min.

Turning to `C=C(c1ccc(C(=O)O)cc1)c1cc2c(cc1C)C(C)(C)CCC2(C)C`, the LC retention time is 14.1 min.

Regarding `CNC(=O)ON=C(C)C(C)S(C)(=O)=O` (stereo unspecified), the LC retention time is 3.67 min.

Consider `Cc1cn(C2CC(N=[N+]=[N-])C(CO)O2)c(=O)[nH]c1=O` (stereo unspecified), for which the LC retention time was 5.06 min.

`O=[N+]([O-])c1cc(C2CCCCC2)c(O)c([N+](=O)[O-])c1`: the LC retention time was 9.19 min.

For the compound `NC(=O)N1c2ccccc2C(O)C(O)c2ccccc21` (stereo unspecified), the LC retention time was 6.64 min.

As to `CC(Cc1ccc(O)cc1)NCC(O)c1cc(O)cc(O)c1` (stereo unspecified), the LC retention time is 4.33 min.

Take `CCOc1nc2cccc(C(=O)O)c2n1Cc1ccc(-c2ccccc2-c2nn[nH]n2)cc1`: the LC retention time is 5.86 min.

With `CCCCCC(=O)c1ccc(O)cc1O`, the LC retention time is 10.6 min.

For the compound `Cc1cccc(C)c1NC(=O)C1CCCCN1C` (stereo unspecified), the LC retention time was 7.49 min.

For the compound `CC(=O)Nc1ccc(S(=O)(=O)Nc2cc(C)on2)cc1`, the LC retention time is 4.33 min.

As for `CC(C(=O)O)c1ccc(C2CCCCC2)c2ccccc12` (stereo unspecified), the LC retention time is 11.2 min.

As to `CCOP(=O)(NC(C)C)Oc1ccc(SC)c(C)c1` (stereo unspecified), the LC retention time was 10.4 min.

On to `CC(C)C(N)C(=O)OCC(CO)OCn1cnc2c(=O)[nH]c(N)nc21` (stereo unspecified), for which the LC retention time is 4.08 min.

Regarding `CC(C)(C)NCC(O)c1ccc(O)c(CO)c1` (stereo unspecified), the LC retention time was 4.06 min.

Turning to `CC1(C)CC1C(=O)NC(=CCCCCSCC(N)C(=O)O)C(=O)O` (stereo unspecified), the LC retention time was 4.91 min.

As for `CCN(CC)C(=O)Nc1ccc(OCC(O)CNC(C)(C)C)c(C(C)=O)c1` (stereo unspecified), the LC retention time is 6.76 min.

As to `CCNC(=O)NC(=O)C(C#N)=NOC`, the LC retention time is 5.58 min.

Take `CCCN(CCC)c1c([N+](=O)[O-])cc(S(N)(=O)=O)cc1[N+](=O)[O-]`: the LC retention time is 10.2 min.

`CCc1cccc(C)c1N(C(=O)C(=O)O)C(C)COC` (stereo unspecified): the LC retention time is 8.29 min.

For the compound `CC(C)Nc1nc(N)[nH]c(=O)n1`, the LC retention time is 4.08 min.

As to `COC(=O)C(Cc1ccccc1)NC(=O)C(CC(=O)O)NCCC(C)(C)C` (stereo unspecified), the LC retention time was 10.2 min.

Consider `C=C(C)C1Cc2c(ccc3c2OC2COc4cc(OC)c(OC)cc4C2C3=O)O1` (stereo unspecified), for which the LC retention time was 10.4 min.

Regarding `CC(C(=O)O)c1cccc(C(=O)c2ccccc2)c1` (stereo unspecified), the LC retention time is 6.77 min.

As for `CCC1OC(=O)C(C)C(OC2CC(C)(OC)C(O)C(C)O2)C(C)C(OC2OC(C)CC(NC)C2O)C(C)(OC)CC(C)C(=O)C(C)C(O)C1(C)O` (stereo unspecified), the LC retention time was 11.3 min.

As for `Oc1ccccc1-c1ccccc1`, the LC retention time was 9.09 min.

As to `Nc1nc2c(ncn2CCC(CO)CO)c(=O)[nH]1`, the LC retention time was 3.34 min.

`c1coc(-c2nc3ccccc3[nH]2)c1`: the LC retention time was 6.8 min.

Regarding `CSc1nc(N=[N+]=[N-])nc(NC(C)C)n1`, the LC retention time was 9.67 min.

In the case of `CCOC1OC(C(=O)O)C(O)C(O)C1O` (stereo unspecified), the LC retention time is 1.35 min.

Regarding `CCC(C(=O)O)C1CCC(C)C(C(C)C(O)C(C)C(=O)C(CC)C2OC3(C=CC(O)C4(CCC(C)(C5CCC(O)(CC)C(C)O5)O4)O3)C(C)CC2C)O1` (stereo unspecified), the LC retention time was 14.7 min.

Regarding `O=c1nccc[nH]1`, the LC retention time is 5.01 min.

`c1ccc2[nH]c(-c3cscn3)nc2c1`: the LC retention time is 6.52 min.

As to `CCCC(C)C1(CC)C(=O)NC(=O)NC1=O` (stereo unspecified), the LC retention time was 7.92 min.

Take `CC(C)C1(C)N=C(c2ncccc2C(=O)O)NC1=O` (stereo unspecified): the LC retention time was 3.1 min.

Turning to `CC12C=CC(=O)C=C1CCC1C2C(O)CC2(C)C1CCC2(O)C(=O)CO` (stereo unspecified), the LC retention time is 8.92 min.

With `CCOC(=O)C1=CC(OC(CC)CC)C(NC(C)=O)C(N)C1` (stereo unspecified), the LC retention time was 8.79 min.

`CCCCOc1ccc(CC(=O)NO)cc1`: the LC retention time was 9.24 min.

Turning to `CC(C)c1nc(CN(C)C(=O)NC(C(=O)NC(Cc2ccccc2)CC(O)C(Cc2ccccc2)NC(=O)OCc2cncs2)C(C)C)cs1` (stereo unspecified), the LC retention time is 12.5 min.

For `CC(C)(c1ccc(O)cc1)c1ccc(O)cc1`, the LC retention time is 8.49 min.

In the case of `CC12CCC3c4cc(O)c(O)cc4CCC3C1CCC2=O` (stereo unspecified), the LC retention time is 9.74 min.

For the compound `COP(=O)(NC(C)=O)SC` (stereo unspecified), the LC retention time was 3.09 min.

For `CC12CCC(=O)C=C1C(O)CC1C2CCC2(C)C(O)CCC12` (stereo unspecified), the LC retention time was 6.61 min.

Consider `COc1ccc(CC(C)NCC(O)c2ccc(O)c(NC=O)c2)cc1` (stereo unspecified), for which the LC retention time was 5.91 min.

In the case of `CC(C)N(C(=O)CS(=O)(=O)O)c1ccccc1`, the LC retention time is 6.01 min.

For `CCN1CCCC1CNC(=O)c1cc(S(=O)(=O)CC)c(N)cc1OC` (stereo unspecified), the LC retention time was 5.08 min.

Turning to `CC(=O)Nc1ccc(S(=O)(=O)Nc2nccs2)cc1`, the LC retention time was 4.61 min.

In the case of `COP(=S)(OC)Oc1ccc(S(N)(=O)=O)cc1`, the LC retention time is 6.16 min.

Regarding `CCCCC1=NC2(CCCC2)C(=O)N1Cc1ccc(-c2ccccc2-c2nn[nH]n2)cc1`, the LC retention time was 10.1 min.
